The values that follow come from patent US10647706B2, “Chemokine CXCR1 and CXCR2 receptor antagonist compounds, and use thereof in the treatment of chemokine-mediated pathologies” (GALDERMA RESEARCH & DEVELOPMENT, priority 2014, dated 2020).

Common to all, as to assay type: cell-based
One assay has as its target CXCR2 receptor (Homo sapiens (Human), UniProt P25025). Kind of assay: β-arrestin recruitment test, PathHunter HEK293-CXCR2 cells stimulated with CXCL8. To be noted: CXCL8 10 nM. The protocol:
(§1) The in vitro affinity of the compounds of the present invention for the CXCR1 and CXCR2 receptors is determined on a functional test of β-arrestin recruitment type after activation of the receptor.
(§2) To evaluate the direct interaction of the CXCR2 or CXCR1 receptor with β-arrestin 2, a test of β-arrestin 2 recruitment for CXCR2 or CXCR1 based on complementation of the β-galactosidase enzyme (Olson K. R., Eglen R. M., Beta-galactosidase complementation: a cell-based luminescent assay platform for drug discovery. Assay Drug Dev. Technol. 2007 February; 5(1); 137-44), as established by DiscoveRx Corporation was used. Stimulation of these two cell lines with CXCL8 (10 nM) induces the recruitment of β-arrestin 2, as indicated by a significant increase in the induction factor. All the CXCR2 antagonists are tested in a dose-dependent manner and the concentration corresponding to 50% inhibition of the response is determined (IC50=concentration of half-inhibition).
(§3) β-Arrestin Recruitment Test: “PathHunter HEK293-CXCR2” or “U20S hCXCR1 β-arrestin” cells (DiscoveRx Corporation) were seeded overnight at 10 000 cells/well (384-well format) in 20 μl of Opti MEM I medium. Preincubation with the antagonist or the vehicle for 30 minutes at 37° C. and 5% CO2 was followed by 60 minutes of stimulation with CXCL8 at 37° C. and 5% CO2. The cells were then placed at room temperature for 30 minutes. The PathHunter detection reagent (DiscoveRx Corporation) was added. After incubation for 60 minutes at room temperature, the β-galactosidase induced by the luminescence during the β-arrestin-CXCR2 interaction was measured for 0.3 s in an Envision 2102 Multilabel Reader (PerkinElmer Life and Analytical Sciences). The data are analysed via a non-linear curve procedure using the XLFit4 (IDBS) exploitation software, and the IC50 values are determined.
On the technique in general: Activated receptors often draw arrestin, which recruitment assays turn into a signal.

Another assay deals with CXCR1 receptor (Homo sapiens (Human), UniProt P25024). In words: β-arrestin recruitment test, U2OS hCXCR1 β-arrestin cells stimulated with CXCL8. The following applies: CXCL8 10 nM. The protocol:
as §1, §2, §3

Another assay deals with human neutrophils. In words: Neutrophil migration (chemotaxis assay, Transwell, IL-8). The following applies: 10 nM IL-8, 1 hour incubation. As to the method:
Purification and culturing of human neutrophils Peripheral blood preparations (18-24 hours) are collected in duly registered clinics or clinical laboratories from healthy volunteers who consented to the re-use of their blood for scientific research (Supplier: Biopredic International). The neutrophils are separated from the whole blood via a positive selection (Whole Blood CD15 MicroBeads: MiltenyiBiotech, Reference: 130-091-058). The cells are resuspended at a rate of 4×10^6 cells per mL in RPMI 1640 culture medium (Invitrogen) supplemented with filtered and heat-inactivated 5% foetal calf serum (FCS) (Invitrogen).
The experiments were performed in “HTS Transwell 96 Well Permeable Supports 3-μm pore size” filter plates (Corning, Reference: 3386). The response doses of CXCRS antagonists are applied in the lower compartments of the plates in the presence of 10 nM of IL-8 (1-72 aa, R&D Systems, Cat. No. IL-208). The neutrophils are then seeded in the upper compartment (2×10^5 cells/well). After 1 hour of incubation at 37° C. and 5% CO2, the number of viable cells that have crossed the membrane and are in the lower compartment is determined via a colorimetric method (CellTiter 96® AQueous One Solution Cell Proliferation Assay—PROMEGA Cat # G3581). Each treatment condition is evaluated in duplicate. The IC50 values are calculated with the XLFit4 software.

The mark [1] stands for this setting: Homo sapiens, Neutrophil, class symbols, read-out: Migration of human neutrophils IC50.
The mark [2] stands for this setting: Homo sapiens, Neutrophil, read-out: Migration of h neutrophils IC50.

Where two headings read alike, the source gives them in different places. Bounds are passed on as bounds.

Chain of CXCR2 receptor (P25025 whole entry): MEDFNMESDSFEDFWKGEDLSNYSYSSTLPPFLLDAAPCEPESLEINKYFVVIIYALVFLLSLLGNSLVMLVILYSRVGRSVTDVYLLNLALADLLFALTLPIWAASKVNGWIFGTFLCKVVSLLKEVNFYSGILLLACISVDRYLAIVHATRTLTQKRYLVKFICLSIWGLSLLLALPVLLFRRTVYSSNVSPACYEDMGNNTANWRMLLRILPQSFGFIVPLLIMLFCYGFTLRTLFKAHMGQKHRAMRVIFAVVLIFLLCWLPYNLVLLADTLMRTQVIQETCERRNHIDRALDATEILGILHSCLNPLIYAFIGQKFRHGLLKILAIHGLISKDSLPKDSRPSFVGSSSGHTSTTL
Chain of CXCR1 receptor (P25024 whole entry): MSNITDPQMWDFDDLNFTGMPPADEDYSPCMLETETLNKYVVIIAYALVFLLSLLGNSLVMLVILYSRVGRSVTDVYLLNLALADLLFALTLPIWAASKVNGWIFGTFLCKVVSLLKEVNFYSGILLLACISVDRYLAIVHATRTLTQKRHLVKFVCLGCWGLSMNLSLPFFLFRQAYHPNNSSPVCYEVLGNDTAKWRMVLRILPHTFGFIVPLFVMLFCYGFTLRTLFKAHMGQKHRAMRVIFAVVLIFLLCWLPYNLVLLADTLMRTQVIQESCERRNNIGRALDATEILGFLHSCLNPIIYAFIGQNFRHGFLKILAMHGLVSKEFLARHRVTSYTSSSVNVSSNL

Turning to `CC[C@@H](Nc1c(Nc2ccc(Cl)c(S(C)(=O)=NC)c2O)c(=O)c1=O)c1ccc(C)o1` (single isomer, unassigned; (+)) [Example 20], the IC50 at CXCR2 receptor (class symbols) is below 20 nM; on CXCR1 receptor (class symbols), below 200 nM; with human neutrophils (setting [1]), below 300 nM.

With `CC[C@@H](Nc1c(Nc2ccc(Cl)c(S(C)(=O)=NCCOC)c2O)c(=O)c1=O)c1ccc(C)o1` (stereo partly drawn) [Example 11, 3-[4-Chloro-2-hydroxy-3-[N-(2-methoxyethyl)-S-methylsulfonimidoyl]anilino]-4-[[(1R)-1-(5-methyl-2-furyl)propyl]amino]cyclobut-3-ene-1,2-dione], the IC50 was at least 20 nM at CXCR2 receptor (class symbols) and at least 200 nM on CXCR1 receptor (class symbols).

For the molecule `CCC(CC)Nc1c(Nc2cccc(S(C)(=O)=NC)c2O)c(=O)c1=O` (single isomer, unassigned; (-)) [Example 18], the results for the IC50 against CXCR2 receptor (class symbols), on CXCR1 receptor (class symbols) and with human neutrophils (setting [1]) were at least 20 nM, at least 200 nM and at least 300 nM, respectively.

`CC[C@@H](Nc1c(Nc2ccc(Cl)c(S(C)(=O)=NC)c2O)c(=O)c1=O)c1ccc(C)o1` (stereo partly drawn) [Example 2, 3-{4-Chloro-2-hydroxy-3-methane[(N-methyl)sulfoximino]phenylamino}-4-[(R)-1-(5-methylfuran-2-yl)propylamino]cyclobut-3-ene-1,2-dione]: the IC50 in the assay with human neutrophils (class symbols, read-out: Migration of human neutrophils IC50) was below 300 nM.

`CC[C@@H](Nc1c(Nc2cccc(S(C)(=O)=NC)c2O)c(=O)c1=O)c1ccccn1` (single isomer, unassigned; (-)) [Example 14]: the IC50 was at least 20 nM against CXCR2 receptor (class symbols), below 200 nM against CXCR1 receptor (class symbols) and at least 300 nM with human neutrophils (setting [1]).

As for `CC[C@@H](Nc1c(Nc2cccc(S(C)(=O)=NC)c2O)c(=O)c1=O)c1ccc(C)o1` (stereo partly drawn) [Example 8, 3-{2-Hydroxy-3-methane[(N-methyl)sulfoximino]phenylamino}-4-[(R)-1-(5-methylfuran-2-yl)propylamino]cyclobut-3-ene-1,2-dione], the IC50 at CXCR2 receptor (class symbols) is at least 20 nM; at CXCR1 receptor (class symbols) it was below 200 nM; in the assay on human neutrophils (setting [1]), at least 300 nM.

Turning to `CCC(CC)Nc1c(Nc2ccc(Cl)c(S(C)(=O)=NCCN(C)C)c2O)c(=O)c1=O` (stereo not shown) [Example 10, 3-[4-Chloro-3-[N-(2-dimethylaminoethyl)-S-methylsulfonimidoyl]-2-hydroxyanilino]-4-(1-ethylpropylamino)cyclobut-3-ene-1,2-dione], the values for the IC50 at CXCR2 receptor (class symbols) and against CXCR1 receptor (class symbols) were at least 20 nM and at least 200 nM, respectively.

Turning to `CC[C@@H](Nc1c(Nc2ccc(Cl)c(S(C)(=N)=O)c2O)c(=O)c1=O)c1ccc(C)o1` (stereo partly drawn) [Example 1, 3-(4-Chloro-2-hydroxy-3-methanesulfoximinophenylamino)-4-[(R)-1-(5-methylfuran-2-yl)propylamino]cyclobut-3-ene-1,2-dione], the IC50 against CXCR2 receptor (class symbols) was below 20 nM; at CXCR1 receptor (class symbols) it was below 200 nM; with human neutrophils (setting [1]), below 300 nM.

At CXCR1 receptor (class symbols), `CC[C@@H](Nc1c(Nc2cccc(S(C)(=O)=NC)c2O)c(=O)c1=O)c1ccc(C)o1` (single isomer, unassigned; (+)) [Example 17] showed an IC50 of at least 200 nM.

`CC[C@@H](Nc1c(Nc2cccc(S(C)(=O)=NC)c2O)c(=O)c1=O)c1ccccn1` (single isomer, unassigned; (-)) [Example 15]: the IC50 at CXCR1 receptor (class symbols) is at least 200 nM.

`CCC(CC)Nc1c(Nc2ccc(Cl)c(S(C)(=O)=Nc3ccncc3)c2O)c(=O)c1=O` (stereo not shown) [Example 4, 3-{4-Chloro-2-hydroxy-3-methane[(N-pyridin-4-yl)sulfoximino]phenylamino}-4-(1-ethylpropylamino)cyclobut-3-ene-1,2-dione]: the IC50 is at least 20 nM at CXCR2 receptor (class symbols) and at least 200 nM on CXCR1 receptor (class symbols).

For the molecule `CC[C@@H](Nc1c(Nc2ccc(Cl)c(S(C)(=O)=NC)c2O)c(=O)c1=O)c1ccccn1` (single isomer, unassigned; (+)) [Example 13], the IC50 at CXCR2 receptor (class symbols) was at least 20 nM; on CXCR1 receptor (class symbols), at least 200 nM.

As for `CS(=N)(=O)c1c(Cl)ccc(NC(=O)Nc2cccc(F)c2Cl)c1O` (stereo not shown) [Example 6, 1-(2-Chloro-3-fluorophenyl)-3-(4-chloro-2-hydroxy-3-methanesulfoximinephenyl)-urea], the IC50 on CXCR2 receptor (class symbols) is at least 20 nM; against CXCR1 receptor (class symbols), at least 200 nM.

`CC[C@@H](Nc1c(Nc2ccc(Cl)c(S(C)(=O)=Nc3ccncc3)c2O)c(=O)c1=O)c1ccc(C)o1` (stereo partly drawn) [Example 3, 3-{4-Chloro-2-hydroxy-3-methane[(N-pyridin-4-yl)sulfoximino]phenylamino}-4-[(R)-1-(5-methylfuran-2-yl)propylamino]cyclobut-3-ene-1,2-dione]: the results for the IC50 against CXCR2 receptor (class symbols) and against CXCR1 receptor (class symbols) were at least 20 nM and at least 200 nM, respectively.

Take `CC[C@@H](Nc1c(Nc2ccc(Cl)c(S(C)(=O)=NC)c2O)c(=O)c1=O)c1ccccn1` (single isomer, unassigned; (-)) [Example 12]: the IC50 was 16 nM against CXCR2 receptor; below 20 nM against CXCR2 receptor (class symbols); 28 nM against CXCR1 receptor; below 200 nM against CXCR1 receptor (class symbols); below 300 nM in the assay with human neutrophils (setting [1]); 82 nM with human neutrophils (setting [2]).

Take `CN=S(C)(=O)c1c(Cl)ccc(Nc2c(N[C@@H](c3ccc(C)o3)[C@H]3CCCS3)c(=O)c2=O)c1O` (stereo partly drawn) [Example 5, 3-{4-Chloro-2-hydroxy-3-methane[(N-methyl)sulfoximino]phenylamino}-4-{[(S)-(5-methylfuran-2-yl)-(R)-tetrahydrothiophen-2-ylmethyl]amino}cyclobut-3-ene-1,2-dione]: the IC50 against CXCR2 receptor (class symbols) was at least 20 nM; on CXCR1 receptor (class symbols), below 200 nM; in the assay on human neutrophils (setting [1]), below 300 nM.

For the molecule `CC[C@@H](Nc1c(Nc2cccc(S(C)(=O)=NC)c2O)c(=O)c1=O)c1ccc(C)o1` (single isomer, unassigned; (+)) [Example 16], the IC50 at CXCR2 receptor was 18 nM; against CXCR2 receptor (class symbols), below 20 nM; at CXCR1 receptor it was 36 nM; with human neutrophils (setting [1]) it was at least 300 nM; in the assay with human neutrophils (setting [2]), 356 nM.

For the molecule `CN=S(C)(=O)c1c(Cl)ccc(NC(=O)Nc2cccc(F)c2Cl)c1O` (stereo not shown) [Example 7, 1-(2-Chloro-3-fluorophenyl)-3-{4-chloro-2-hydroxy-3-methane[(N-methyl)sulfoximino]phenyl}urea], the IC50 against CXCR2 receptor (class symbols) was at least 20 nM; against CXCR1 receptor (class symbols) it was at least 200 nM.
